# Results from patent USRE49825E1, “Piperidinyl nociceptin receptor compounds” (Astraea Therapeutics, LLC, priority 2015, dated 2024).
# Like-named read-outs stand apart in the source and are kept apart here.
# Columns and labels:
# mu opioid receptor = mu opioid receptor (Homo sapiens, UniProt P35372); assay: Radioligand binding assay, [3H]DAMGO, membranes of CHO cells transfected with human mu opioid receptor; settings: CHO cell membranes, read-out: Receptor Binding Ki (nM) μ
# kappa opioid receptor = kappa opioid receptor (Homo sapiens, UniProt P41145); assay: Radioligand binding assay, [3H]U69593, membranes of CHO cells transfected with human kappa opioid receptor; settings: CHO cell membranes, read-out: Receptor Binding Ki (nM) κ
# kappa opioid receptor, sequence (P41145 whole entry): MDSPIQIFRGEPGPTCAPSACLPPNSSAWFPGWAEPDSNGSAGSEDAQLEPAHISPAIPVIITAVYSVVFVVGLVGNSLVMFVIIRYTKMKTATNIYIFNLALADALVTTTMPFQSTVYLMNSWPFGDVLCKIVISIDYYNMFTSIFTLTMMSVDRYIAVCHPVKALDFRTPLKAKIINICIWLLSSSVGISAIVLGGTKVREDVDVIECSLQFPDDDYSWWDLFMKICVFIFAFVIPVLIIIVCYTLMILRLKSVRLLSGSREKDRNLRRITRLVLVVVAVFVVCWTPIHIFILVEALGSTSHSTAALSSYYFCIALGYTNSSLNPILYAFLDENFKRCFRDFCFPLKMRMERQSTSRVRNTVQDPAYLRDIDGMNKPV
# mu opioid receptor, sequence (P35372 whole entry): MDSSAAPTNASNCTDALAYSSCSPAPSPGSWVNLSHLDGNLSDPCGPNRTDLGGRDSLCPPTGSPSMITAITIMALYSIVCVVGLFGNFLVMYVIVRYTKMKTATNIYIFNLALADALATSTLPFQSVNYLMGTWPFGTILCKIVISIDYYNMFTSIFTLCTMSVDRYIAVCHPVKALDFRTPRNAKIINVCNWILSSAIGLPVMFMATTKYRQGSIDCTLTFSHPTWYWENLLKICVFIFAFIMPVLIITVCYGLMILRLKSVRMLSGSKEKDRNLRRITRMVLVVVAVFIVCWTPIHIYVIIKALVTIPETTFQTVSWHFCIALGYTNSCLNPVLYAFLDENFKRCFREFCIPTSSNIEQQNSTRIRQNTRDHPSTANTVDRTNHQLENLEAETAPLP
Compound,Ki (mu opioid receptor; Compounds of Formula (IV)),Ki (kappa opioid receptor; Compounds of Formula (IV)),Ki (mu opioid receptor; Compounds of Formula (II)),Ki (kappa opioid receptor; Compounds of Formula (II))
"CC(C)[C@H]1CC[C@@H](N2CCC3(CC2)C(=O)N(CC(N)=O)Cc2cc(-c4ccccc4)ccc23)CC1 [Compound 345, 2-(1′-(cis-4-isopropyl-cyclohexyl)-3-oxo-7-phenyl-1H-spiro [isoquinoline-4,4′-piperidin]-2(3H)-yl) acetamide]",150 to 5000 nM,150 to 5000 nM,–,–
CC(C)[C@H]1CC[C@@H](N2CCC(n3cc(CCCNC(N)=S)c4ccccc43)CC2)CC1 [Compound 96],–,–,150 to 5000 nM,150 to 5000 nM
"CC(C)[C@H]1CC[C@@H](N2CCC(n3ccc4ccccc43)CC2)CC1 [Compound 61, syn-1-(1-(4-isopropylcyclohexyl)piperidin-4-yl)-1H-indole]",–,–,150 to 5000 nM,150 to 5000 nM
"CC(C)[C@H]1CC[C@@H](N2CCC(n3cc(CN4CC(O)C4)c4ccccc43)CC2)CC1 [Compound 67, 1-((1-(1-(cis-4-isopropylcyclohexyl)piperidin-4-yl)-1H-indol-3-yl)methyl)azetidin-3-ol]",–,–,> 5000 nM,> 5000 nM
CC(C)[C@H]1CC[C@@H](N2CCC(n3cc(CNCCO)c4ccccc43)CC2)CC1 [Compound 70],–,–,150 to 5000 nM,150 to 5000 nM
"CC(C)[C@H]1CC[C@@H](N2CCC(n3cc(CN4CC[C@@H](O)C4)c4ccccc43)CC2)CC1 [Compound 66, (R)-1-((1-(1-(cis-4-isopropylcyclohexyl)piperidin-4-yl)-1H-indol-3-yl)methyl)pyrrolin-3-ol]",–,–,150 to 5000 nM,> 5000 nM
CC(C)[C@H]1CC[C@@H](N2CCC(n3cc(CN(C)C)c4ccccc43)CC2)CC1 [Compound 84],–,–,150 to 5000 nM,–
CCOC(=O)NCCc1cn(C2CCN([C@H]3CC[C@@H](C(C)C)CC3)CC2)c2ccccc12 [Compound 94],–,–,150 to 5000 nM,> 5000 nM
CC(C)[C@H]1CC[C@@H](N2CCC(n3cc(CNC(=O)C(N)CCCNC(=N)N)c4ccccc43)CC2)CC1 (stereo partly shown) [Compound 80],–,–,150 to 5000 nM,150 to 5000 nM
"CC(C)[C@H]1CC[C@@H](N2CCC(n3cc(CN4CCC(N)CC4)c4ccccc43)CC2)CC1 [Compound 69, 1-((1-(1-(cis-4-isopropylcyclohexyl)piperidin-4-yl)-1H-indol-3-yl)methyl)piperidin-4-amine]",–,–,150 to 5000 nM,150 to 5000 nM
CC(C)[C@H]1CC[C@@H](N2CCC(n3cc(CN4CCC(O)CC4)c4ccccc43)CC2)CC1 [Compound 68],–,–,> 5000 nM,150 to 5000 nM
CCNCC(=O)NCc1cn(C2CCN([C@H]3CC[C@@H](C(C)C)CC3)CC2)c2ccccc12 [Compound 76],–,–,150 to 5000 nM,150 to 5000 nM
"CC(C)[C@H]1CC[C@@H](N2CCC(n3cc(CCN)c4ccccc43)CC2)CC1 [Compound 86, 2-(1-(1-(cis-4-isopropylcyclohexyl)piperidin-4-yl)-1H-indol-3-yl)ethan-1-amine]",–,–,150 to 5000 nM,150 to 5000 nM
